How the values were obtained:
[1] = test system: MMP-9; assay: MMP-9 activity (gelatin zymography) in media of IL-1β stimulated male RASMCs; assay type: cell-based, Sprague-Dawley rats; conditions: 10^−10 to 10^−6 mol/L, 48 hours with concurrent IL-1β stimulation
Procedure: Experimental interventions were carried out with confluent RASMCs at passages 3 through 8 in serum-free DMEM supplemented with antibiotics. Confluent monolayers of RASMCs were incubated in T-75 plates with IL-1β (2 ng/mL, from Sigma) for 72 hours. This concentration of IL-1β is found in human aortic aneurysms. After 72 hours of IL-1β stimulation, the RASMC-conditioned medium was collected for measurements of TIMP-1 activity, MMP-9 activity, and MMP-9 protein levels. The remaining SMCs were lysed in 1% sodium dodecyl sulfate (SDS), and total cellular protein was determined by a bicinchoninic acid protein assay (Pierce). In separate experiments, the previous protocol was followed, but male RASMCs were incubated with 5 different concentrations of 17-β-estradiol (1×10^−10 to 1×10^−6 mol/L) for 48 hours with concurrent IL-1β stimulation. Zymography supplies were purchased from Novex. MMP distribution after treatment of RASMC with IL-1β and increasing concentrations of 17-β-estradiol was determined. Gelatin substrate zymograms were prepared using precast 10% SDS-polyacrylamide gels containing 1 mg/mL of gelatin. Equal volumes of experimental media samples were diluted into 2× tris-glycine SDS sample buffer and electrophoretically separated under nonreducing conditions. […]

[2] = test system: MMP-9; assay: MMP-9 activity (zymography) in media of IL-1β stimulated aortic explants from pretreated male rats; assay type: in vivo, Sprague-Dawley rats; conditions: male rats treated 3 weeks with 0.1 mg 21-day extended release pellet, IL-1β stimulation; control 75.3, p<0.03
Procedure: Zymography supplies were purchased from Novex. MMP distribution after treatment of RASMC with IL-1β and increasing concentrations of 17-β-estradiol was determined. Gelatin substrate zymograms were prepared using precast 10% SDS-polyacrylamide gels containing 1 mg/mL of gelatin. Equal volumes of experimental media samples were diluted into 2× tris-glycine SDS sample buffer and electrophoretically separated under nonreducing conditions. Proteins were renatured in 2.7% Triton X-100, and the gels were incubated overnight at 37° C. in 50 mmol/L tris-HCl containing 5 mmol/L CaCl2 and 2% Brij 35. After overnight staining with Coomassie blue R-250 and de-staining for 4 hours with 10% acetic acid and 40% methanol in water, gelatinase activity was evident by clear bands against a dark blue background. Male Sprague-Dawley rats (190 g to 210 g) were obtained from Charles River Laboratories. Subcutaneous neck implantation of a 21-day slow release 0.1 mg 17-β-estradiol pellet (Innovative Research of America) was performed under general inhalational anesthesia. This particular estradiol dose results in serum estradiol levels at 2 to 3 weeks of 44.7±6.1 pg/mL compared with 15.0±2.2 pg/mL in control rats (p<0.05). Three weeks after pellet implantation, the infrarenal aorta was explanted under general anesthesia. […]

[3] = Serum estradiol levels after pellet implantation; assay type: in vivo; conditions: at 2 to 3 weeks, 21-day slow-release 0.1-mg pellet s.c.; control rats 15.0±2.2
From the text: In other experiments, male rats were randomized to implantation of an estrogen pellet or sham implantation (n=13, each). The former involved the subcutaneous implantation of a 21-day slow-release 0.1-mg 17-β-estradiol pellet (Innovative Research of America, Sarasota, Fla.) in the posterior neck. Sham rats underwent the same implantation procedure without insertion of any pellet. This particular estradiol dose results in serum estradiol levels at 2 to 3 weeks of 44.7±6.1 pg/mL compared with 15.0±2.2 pg/mL in control rats (P<0.05). Rat aortas from both groups were subjected to elastase perfusion 5 days later. The aortas were then removed for study 7 or 14 days after elastase perfusion.
Male Sprague-Dawley rats (190 g to 210 g) were obtained from Charles River Laboratories. Subcutaneous neck implantation of a 21-day slow release 0.1 mg 17-β-estradiol pellet (Innovative Research of America) was performed under general inhalational anesthesia. This particular estradiol dose results in serum estradiol levels at 2 to 3 weeks of 44.7±6.1 pg/mL compared with 15.0±2.2 pg/mL in control rats (p<0.05). Three weeks after pellet implantation, the infrarenal aorta was explanted under general anesthesia. The aorta was briefly rinsed free of blood and debris with cold 1×PBS containing antibiotics, cut into 1-mm rings, and incubated for 48 hours in 1 mL of serum-free DMEM containing antibiotics and IL-1β. […]

serum estradiol levels [3]: 44.7 ± 6.1 pg/mL
SMILES: C[C@]12CC[C@@H]3c4ccc(O)cc4CC[C@H]3[C@@H]1CC[C@@H]2O [17-β-estradiol]
MMP-9 activity in male RASMC media [1]: no difference
MMP-9 activity in conditioned media of aortic explants [2]: 29.9 OD×10^3/mg protein

Reference: patent US20090082322A1, “Gender Differences in Experimental Aortic Aneurysm Formation” (THE REGENTS OF THE UNIVERSITY OF MICHIGAN, priority 2004, published 2009)
